Assay results reported in patent US11795481B2, “Processes for producing a fermentation product” (Novozymes A/S, priority 2017, dated 2023).

Experiments:
[1] = tested on: multi-strain LAB culture; assay: SSF of control mash with 1% w/w infected mash, AA13 candidates, HPLC of organic acids and ethanol (Example 3); assay type: cell-based; settings: SSF 32° C. up to 24 hours, 20% DS; for % delta Ethanol / % delta Lactic Acid: vs No Treatment
Protocol: A control mash was prepared in-house with an industry relevant blend of AA369 and Protease Pfu using a Lab-O-Mat incubator for 2 hours at 85° C. and 36% DS to simulate typical industry conditions. The mash was then frozen prior to use in SSF. An infected mash was prepared by infecting the control mash with a multi-strain LAB culture grown in MRS. The bacteria in control mash was incubated overnight, and then frozen with 20% glycerol. For this experiment, 1% weight/weight of the infected mash was mixed into the control mash. This mimics an infection event at a large-scale ethanol facility. For SSF, all mash was prepared with 1000 ppm of urea to aid with yeast fermentation. All treatments were dosed with a baseline commercial glucoamylase GSA, while AA13 candidates were dosed at either 10 ug/g-DS or 50 ug/g-DS. SSF was performed at 5 g scale with 10 uL/g rehydrated Ethanol Red yeast at 32° C. for up to 24 hours at 20% DS. At the end of fermentation, samples were deactivated with 50 uL of 40% sulfuric acid and then centrifuged. The supernatant was filtered through a 0.2 μm filter and then measured for soluble carbohydrates and organic acids using an ion-exchange H-column on HPLC.

[2] = tested on: mixed bacterial population previously isolated from an infected commercial corn mash; assay: Low Dry Solids fermentation of 1% infected liquefied corn mash with AA13 polypeptides, HPLC analysis (Example 2); assay type: cell-based; settings: after 20 hrs of Low Dry Solids fermentation of corn mash; increasing doses; vs control
Protocol: Clean liquefied corn mash: Clean corn mash was prepared in our laboratories under typical liquefaction conditions using a blend of AA369 and Protease Pfu. […] Substrate is stored frozen and thawed before use.
Infected liquefied corn mash: Clean corn mash was inoculated with a mixed bacterial population previously isolated from an infected commercial corn mash. The infected mash was incubated with the inoculant for up to 24 hours at approximately 32° C. […] Substrate is frozen in 20% glycerol solution and then thawed before use.
1% Infected liquefied mash: Per every 100 g of “clean” mash, 1 g of infected mash is added and mixed thoroughly.
Low Dry Solids fermentation. 1% Infected Mash was diluted to 20% dry solids. 200 ppm target urea was added as an exogenous nitrogen source for yeast. Commercial glucoamylase GSA, was used at a dose of 0.6 AGU/g-dry solids. Yeast was pitched at a rate of 0.25 g/L. Experimental enzymes were dosed between 2 ppm and 100 ppm. Dosage were against dry solids.
Positive control: Penicillin was used at 25 ppm.
Negative control: No treatment was added.
Yeast, enzymes, and any additional tap water was added at approximately the same time to start fermentation. […]
Fermentations were sampled at various time points to examine soluble carbohydrates and organic acids. […] Analytes were quantified against internal standards. […]
Data was analyzed using SAS JMP statistical software.

## Aspergillus terreus: AA13 polypeptide from Aspergillus terreus having the amino acid sequence of SEQ ID NO: 119
[1]; AA13 dose 10 ug/g-DS
  average Ethanol: 77.1 g/L
  average Lactic Acid: 3.4 g/L
  % delta Ethanol: −0.7%
  % delta Lactic Acid: 1.3%
[1]; AA13 dose 50 ug/g-DS
  average Ethanol: 78.0 g/L
  average Lactic Acid: 3.4 g/L
  % delta Ethanol: 0.4%
  % delta Lactic Acid: 1.3%
[2]
  lactic acid titers, dose response (FIG. 5): reduced lactic acid titers compared to the control
